From ChEMBL document CHEMBL4765467, “Improving Thermodynamic Stability and Anticoagulant Activity of a Thrombin Binding Aptamer by Incorporation of 8-trifluoromethyl-2'-deoxyguanosine” (J Med Chem, 2021)
Activity calls are given as the source filed them. The rule behind the calls is not given here.

Assays:
Plasma [1] = experiment: Anticoagulant activity in human plasma assessed prothrombin time at 0.25 to 1 uM; format: functional; settings: dose 0.25-1 µM
Plasma [2] = experiment: Anticoagulant activity in human plasma assessed prothrombin time in presence of 1.5 fold complementary sequence of TBA; format: functional, cell-free
Plasma [3] = experiment: Anticoagulant activity in human plasma assessed prothrombin time in presence of complementary sequence of TBA; format: functional, cell-free
[4] = Stability in 50% human plasma assessed as compound degradation at 50 uM measured within 3 hrs by PAGE analysis; format: ADME, cell-free
[5] = Stability in 50% human plasma assessed as compound degradation at 50 uM measured within 3 hrs by PAGE analysis relative to TBA; format: ADME, cell-free
[6] = Thermodynamic stability assessed as change in melting temperature by CD spectroscopy relative to TBA; format: physicochemical
Rattus norvegicus = experiment: Anticoagulant activity in ferric chloride-induced Sprague-Dawley rat carotid thrombosis model assessed as reduction in thrombus formation by measuring thrombus area at […], iv by H and E staining based analysis; format: functional; design: scale not given: the % may be the effect or the level left

| Stabilty [4] | Stabilty [5] | deltaTm [6] [°C] | Compound | PT (Plasma [1]) [s] | Activity (Plasma [2]) | Activity (Plasma [3]) | Activity (Rattus norvegicus) [%] |
| --- | --- | --- | --- | --- | --- | --- | --- |
| Unstable | Stable | 16.8 | Cc1cn([C@H]2C[C@H](OP(=O)(O)OC[C@H]3O[C@@H](n4c(C(F)(F)F)nc5c(=O)[nH]c(N)nc54)C[C@@H]3OP(=O)(O)OC[C@H]3O[C@@H](n4cnc5c(=O)[nH]c(N)nc54)C[C@@H]3OP(=O)(O)OC[C@H]3O[C@@H](n4cc(C)c(=O)[nH]c4=O)C[C@@H]3OP(=O)(O)OC[C@H]3O[C@@H](n4cnc5c(=O)[nH]c(N)nc54)C[C@@H]3OP(=O)(O)OC[C@H]3O[C@@H](n4cc(C)c(=O)[nH]c4=O)C[C@@H]3OP(=O)(O)OC[C@H]3O[C@@H](n4cnc5c(=O)[nH]c(N)nc54)C[C@@H]3OP(=O)(O)OC[C@H]3O[C@@H](n4cnc5c(=O)[nH]c(N)nc54)C[C@@H]3OP(=O)(O)OC[C@H]3O[C@@H](n4cc(C)c(=O)[nH]c4=O)C[C@@H]3OP(=O)(O)OC[C@H]3O[C@@H](n4cc(C)c(=O)[nH]c4=O)C[C@@H]3OP(=O)(O)OC[C@H]3O[C@@H](n4c(C(F)(F)F)nc5c(=O)[nH]c(N)nc54)C[C@@H]3OP(=O)(O)OC[C@H]3O[C@@H](n4cnc5c(=O)[nH]c(N)nc54)C[C@@H]3O)[C@@H](COP(=O)(O)O[C@H]3C[C@H](n4cc(C)c(=O)[nH]c4=O)O[C@@H]3COP(=O)(O)O[C@H]3C[C@H](n4cnc5c(=O)[nH]c(N)nc54)O[C@@H]3COP(=O)(O)O[C@H]3C[C@H](n4cnc5c(=O)[nH]c(N)nc54)O[C@@H]3COP(=O)(O)O)O2)c(=O)[nH]c1=O | 26.7 | inactive | inactive |  |
| Unstable |  | 7.6 | Cc1cn([C@H]2C[C@H](OP(=O)(O)OC[C@H]3O[C@@H](n4cnc5c(=O)[nH]c(N)nc54)C[C@@H]3OP(=O)(O)OC[C@H]3O[C@@H](n4cnc5c(=O)[nH]c(N)nc54)C[C@@H]3OP(=O)(O)OC[C@H]3O[C@@H](n4cc(C)c(=O)[nH]c4=O)C[C@@H]3OP(=O)(O)OC[C@H]3O[C@@H](n4cnc5c(=O)[nH]c(N)nc54)C[C@@H]3OP(=O)(O)OC[C@H]3O[C@@H](n4cc(C)c(=O)[nH]c4=O)C[C@@H]3OP(=O)(O)OC[C@H]3O[C@@H](n4cnc5c(=O)[nH]c(N)nc54)C[C@@H]3OP(=O)(O)OC[C@H]3O[C@@H](n4cnc5c(=O)[nH]c(N)nc54)C[C@@H]3OP(=O)(O)OC[C@H]3O[C@@H](n4cc(C)c(=O)[nH]c4=O)C[C@@H]3OP(=O)(O)OC[C@H]3O[C@@H](n4cc(C)c(=O)[nH]c4=O)C[C@@H]3OP(=O)(O)OC[C@H]3O[C@@H](n4c(C(F)(F)F)nc5c(=O)[nH]c(N)nc54)C[C@@H]3OP(=O)(O)OC[C@H]3O[C@@H](n4cnc5c(=O)[nH]c(N)nc54)C[C@@H]3O)[C@@H](COP(=O)(O)O[C@H]3C[C@H](n4cc(C)c(=O)[nH]c4=O)O[C@@H]3COP(=O)(O)O[C@H]3C[C@H](n4cnc5c(=O)[nH]c(N)nc54)O[C@@H]3COP(=O)(O)O[C@H]3C[C@H](n4cnc5c(=O)[nH]c(N)nc54)O[C@@H]3COP(=O)(O)O)O2)c(=O)[nH]c1=O | 29.1 | inactive | inactive | 60 |
